# Source: patent US11891455B2, “Polymorph form of (r)-2-[2-amino-3-(indol-3-yl)propionylamino]-2- methylpropionic acid and uses thereof” (Galimedix Therapeutics Inc., priority 2019, dated 2024)
# Peptide text beside a SMILES is read from it.
# Key:
# Format in all cases: physicochemical
# [1] = Solubility test in water (visual check); details: for solubility in water (in words): visual check
# Experimental: To a three necked 1 L flask equipped with stirrer and thermometer, 60.0 g (207.4 mmol) of (R)-2-[2-amino-3-(indol-3-yl)propionylamino]-2-methylpropionic acid, which is as synthesized by methods as described herein, e.g., at Examples 6 and 11, or by the method as previously described in U.S. Patent Application Publication No. 2006/0234947, was added to a mixture of 167.0 mL of water and 21.0 mL of concentrated hydrochloric acid, resulting in the formation of a yellowish brown solution. The pH of the solution was set to 5.6 with 53.0 mL of a 20% NaOH solution at 0-5° C. About 30 minutes later, the crystallization started at 0-5° C. The suspension was stirred overnight at 0-5° C. The suspension was filtered on a pre-chilled funnel. As an in-process control, the solubility of a part of the filter cake in water was checked. […] Form II of (R)-2-[2-Amino-3-(indol-3-yl)propionylamino]-2-methylpropionic acid was isolated and dried at 0-5° C. over P2O5.
# To a three necked 6 L flask equipped with overhead stirrer, thermometer, and pH meter, 1189.0 g of wet […] from Step 1 was dissolved in a mixture of 1715.0 mL of water and 250.0 mL of concentrated HCl. The mixture was stirred at 5-10° C. and the pH of the solution was adjusted to 5.6 with 665.0 mL of a 20% NaOH solution maintaining the temperature at 5-10° C. After 30 minutes of stirring, the crystallization began. The resulting suspension was stirred at 0-5° C. overnight. The precipitate was collected by filtration. This collected Form II was suspended in 1.2 L of water and heated to 30-35° C. for two hours. At the beginning, the solid partly dissolved, then precipitated again. […] The suspension was cooled to room temperature (20-25° C.), filtered and washed with 400 mL and 800 mL of water, subsequently then dried at 60-65° C. to constant weight.
# [2] = Transition of Form II to Form I followed by X-ray powder diffraction
# Experimental: X-ray powder diffraction (XRPD) patterns were obtained in a Philips model PW 3710 based PW 1050 Bragg-Brentano parafocusing goniometer using CuKa radiation (l=0.15418 nm), graphite monochromator and proportional counter. The XRD scans were digitally recorded in the […] of 3-35deg with a step size of 0.04deg.
# Form II was measured at 20-25° C. (long dashed line), then heated at 30-35 for 15 minutes (solid line), then another 60 minutes (dotted line) (FIG. 2). Form I was also measured (short dashed line). According to the measurements, Form II is highly crystalline and strongly oriented (it forms large plates).
# The transition of Form II (dark grey line) to Form I (black line) was complete at 50-60° C. within 30 minutes (FIG. 3). The reference diffractogram of Form I is shown in grey.
# [3] = Microscopy study of the transition of Form II to Form I; details: 30-35° C., polarized light microscope
# Experimental: Transition of wet Form II to Form I was observed through a MOTIC BA300 microscope (as shown in FIGS. 6-10) under polarized light. The transition from wet Form II to Form I proceeded rapidly. The large Form II crystals transformed to small crystals at 30-35° C. within 2 minutes. The crystals of Form II are large plates. The observed crystal form explains the observed thixotropic property of the suspension of Form II. Form I consists of uniform rounded crystals.
# [4] = Transition of Form II to Form I / product stability as a function of temperature
# Experimental: At a higher temperature (e.g., 40-50° C.) significant degradation of the product is observed. Further, the isolated yield (45%-50% instead of 60%) and the efficiency of the purification are slightly lower (98.9 area %) at −5° C. than at 0-5° C. […] During the filtration step, the thick suspension could be warmed up and partly dissolves Form II of the compound and decreases the yield.
# The complete transition from GAL-101 Form II to GAL-101 Form I is detected at room temperature (20-25° C.) within 15 minutes. The transition can start at above 10° C. The transition can be followed by microscope, the large metastable crystals transform to small crystals within a few minutes at ambient temperature (FIGS. 6-14).
solubility in water (in words) ([1]; listed as Form I),water needed to dissolve (water solubility) ([1]; room temperature),solubility in water (in words) [1],solubility in water (in words) ([1]; listed as form II),time to complete transition of Form II to Form I (XRPD) ([2]; 50-60° C.),"conversion of Form II to Form I in dry state (XRPD) ([2]; dry state, 30-35° C.)",time for large Form II crystals to transform to small crystals (wet Form II to Form I) [3],temperature above which the transition Form II to Form I can start [4],speed of transformation to Form I (in words) ([4]; above 30° C.),time to complete transition from Form II to Form I ([4]; room temperature (20-25° C.)),SMILES
almost insoluble in water,–,–,–,–,–,–,–,–,–,"CC(C)(NC(=O)[C@H](N)Cc1c[nH]c2ccccc12)C(=O)O [GAL-101 Form I, (R)-2-[2-amino-3-(indol-3-yl)propionylamino]-2-methylpropionic acid] (HELM PEPTIDE1{[dW].[Aib]}$$$$V2.0)"
–,about 4 volumes of water,high water solubility,Immediately dissolving,≤ 30 min,converts gradually to Form I,≤ 2 min,above 10 °C,very rapidly,≤ 15 min,"CC(C)(NC(=O)[C@H](N)Cc1c[nH]c2ccccc12)C(=O)O [GAL-101 Form II, (R)-2-[2-amino-3-(indol-3-yl)propionylamino]-2-methylpropionic acid] (HELM PEPTIDE1{[dW].[Aib]}$$$$V2.0)"
